As usually defined, the inhibition is the share of the control response that was lost under treatment.

Three compounds from ChEMBL document CHEMBL5653631, “A Potent and Selective ULK1 Inhibitor Suppresses Autophagy and Sensitizes Cancer Cells to Nutrient Stress” (iScience, 2018) can be followed below.

Molecules are shown by their SMILES.

Experiment [1] deals with Proto-oncogene tyrosine-protein kinase receptor Ret (Homo sapiens) (UniProt P07949). Nature of the experiment: Inhibition of human recombinant RET at 40 nM related to control ULK1.
In experiment [2] the target is Protein kinase C iota type (Homo sapiens) (UniProt P41743). Nature of the experiment: Inhibition of human recombinant PKCi at 40 nM in presence of ATP by radiometric assay relative to control.
Experiment [3] has as its target Leucine-rich repeat serine/threonine-protein kinase 2 (Homo sapiens) (UniProt Q5S007). Nature of the experiment: Inhibition of human recombinant LRRK2 at 40 nM related to control ULK1.
The target in experiment [4] is Tyrosine-protein kinase Lyn (Homo sapiens) (UniProt P07948). Nature of the experiment: Inhibition of human recombinant LYN at 40 nM in presence of ATP by radiometric assay relative to control.
In experiment [5] the target is Tyrosine-protein kinase FRK (Homo sapiens) (UniProt P42685). Nature of the experiment: Inhibition of human recombinant FRK at 500 nM in presence of ATP by radiometric assay relative to control.
Experiment [6] concerns the target T1, Serine/threonine-protein kinase Sgk3 (Homo sapiens) (UniProt Q96BR1).
T1 sequence (whole entry): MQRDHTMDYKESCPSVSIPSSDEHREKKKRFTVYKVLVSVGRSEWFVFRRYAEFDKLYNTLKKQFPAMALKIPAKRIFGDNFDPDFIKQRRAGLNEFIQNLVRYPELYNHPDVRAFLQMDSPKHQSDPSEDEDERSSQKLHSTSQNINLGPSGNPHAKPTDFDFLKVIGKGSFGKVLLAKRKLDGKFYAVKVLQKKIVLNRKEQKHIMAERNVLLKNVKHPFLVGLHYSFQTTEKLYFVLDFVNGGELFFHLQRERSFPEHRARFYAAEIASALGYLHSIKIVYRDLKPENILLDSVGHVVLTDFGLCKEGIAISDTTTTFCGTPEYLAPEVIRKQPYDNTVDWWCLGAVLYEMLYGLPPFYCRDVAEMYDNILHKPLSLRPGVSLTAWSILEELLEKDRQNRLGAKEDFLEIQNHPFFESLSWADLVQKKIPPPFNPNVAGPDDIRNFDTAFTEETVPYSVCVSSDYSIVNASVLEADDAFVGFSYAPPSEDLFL
Nature of the experiment: Inhibition of human recombinant SGK3 at 500 nM in presence of ATP by radiometric assay relative to control.

Experiment [7] addresses Vascular endothelial growth factor receptor 1 (Homo sapiens) (UniProt P17948). Nature of the experiment: Inhibition of human recombinant FLT1 at 500 nM related to control ULK1.
The target in experiment [8] is Proto-oncogene tyrosine-protein kinase receptor Ret (Homo sapiens) (UniProt P07949). Nature of the experiment: Inhibition of human recombinant RET at 500 nM in presence of ATP by radiometric assay relative to control.
Experiment [9] has as its target Fibroblast growth factor receptor 1 (Homo sapiens) (UniProt P11362). Nature of the experiment: Inhibition of human recombinant FGFR1 at 500 nM related to control ULK1.
The species entered for another experiment is Homo sapiens. Nature of the experiment: Inhibition of human recombinant p70S6K at 500 nM related to control ULK1.
The target of experiment [10] is Tyrosine-protein kinase HCK (Homo sapiens) (UniProt P08631). Nature of the experiment: Inhibition of human recombinant HCK at 500 nM in presence of ATP by radiometric assay relative to control.
Experiment [11] deals with Mitogen-activated protein kinase kinase kinase 9 (Homo sapiens) (UniProt P80192). Nature of the experiment: Inhibition of human recombinant MLK1 at 15 nM related to control ULK1.
Experiment [12] addresses Receptor-type tyrosine-protein kinase FLT3 (Homo sapiens) (UniProt P36888). Nature of the experiment: Inhibition of human recombinant FLT3 at 15 nM in presence of ATP by radiometric assay relative to control.
For experiment [13], the target named is T2, Tyrosine-protein kinase receptor TYRO3 (Homo sapiens) (UniProt Q06418).
T2 sequence (whole entry): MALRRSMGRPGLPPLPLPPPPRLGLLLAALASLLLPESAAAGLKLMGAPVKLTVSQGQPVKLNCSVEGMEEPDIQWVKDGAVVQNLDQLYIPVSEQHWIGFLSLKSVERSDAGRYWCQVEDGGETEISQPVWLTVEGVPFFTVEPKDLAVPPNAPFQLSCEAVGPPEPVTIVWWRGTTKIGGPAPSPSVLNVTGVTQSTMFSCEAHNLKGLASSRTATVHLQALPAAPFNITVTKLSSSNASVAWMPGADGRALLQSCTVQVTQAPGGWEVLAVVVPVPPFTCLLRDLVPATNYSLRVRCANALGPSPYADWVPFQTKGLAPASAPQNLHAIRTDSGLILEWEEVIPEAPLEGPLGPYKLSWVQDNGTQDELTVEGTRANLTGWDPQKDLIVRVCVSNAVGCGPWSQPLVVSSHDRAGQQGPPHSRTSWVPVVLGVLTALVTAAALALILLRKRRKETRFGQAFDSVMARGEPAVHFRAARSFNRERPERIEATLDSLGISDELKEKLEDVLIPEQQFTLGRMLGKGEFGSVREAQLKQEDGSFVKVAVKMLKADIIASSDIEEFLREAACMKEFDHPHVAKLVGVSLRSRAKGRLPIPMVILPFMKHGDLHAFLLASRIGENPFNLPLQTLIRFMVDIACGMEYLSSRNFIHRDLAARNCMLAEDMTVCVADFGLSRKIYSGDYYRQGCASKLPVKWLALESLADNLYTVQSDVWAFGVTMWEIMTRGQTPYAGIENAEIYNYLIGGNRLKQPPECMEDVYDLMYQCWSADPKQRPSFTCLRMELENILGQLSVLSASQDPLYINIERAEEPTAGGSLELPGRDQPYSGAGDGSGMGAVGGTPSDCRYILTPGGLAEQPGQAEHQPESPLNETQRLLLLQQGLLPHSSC
Nature of the experiment: Inhibition of human recombinant TYRO3 at 15 nM in presence of ATP by radiometric assay relative to control.

Sequence of Proto-oncogene tyrosine-protein kinase receptor Ret (Homo sapiens) (P07949 whole entry): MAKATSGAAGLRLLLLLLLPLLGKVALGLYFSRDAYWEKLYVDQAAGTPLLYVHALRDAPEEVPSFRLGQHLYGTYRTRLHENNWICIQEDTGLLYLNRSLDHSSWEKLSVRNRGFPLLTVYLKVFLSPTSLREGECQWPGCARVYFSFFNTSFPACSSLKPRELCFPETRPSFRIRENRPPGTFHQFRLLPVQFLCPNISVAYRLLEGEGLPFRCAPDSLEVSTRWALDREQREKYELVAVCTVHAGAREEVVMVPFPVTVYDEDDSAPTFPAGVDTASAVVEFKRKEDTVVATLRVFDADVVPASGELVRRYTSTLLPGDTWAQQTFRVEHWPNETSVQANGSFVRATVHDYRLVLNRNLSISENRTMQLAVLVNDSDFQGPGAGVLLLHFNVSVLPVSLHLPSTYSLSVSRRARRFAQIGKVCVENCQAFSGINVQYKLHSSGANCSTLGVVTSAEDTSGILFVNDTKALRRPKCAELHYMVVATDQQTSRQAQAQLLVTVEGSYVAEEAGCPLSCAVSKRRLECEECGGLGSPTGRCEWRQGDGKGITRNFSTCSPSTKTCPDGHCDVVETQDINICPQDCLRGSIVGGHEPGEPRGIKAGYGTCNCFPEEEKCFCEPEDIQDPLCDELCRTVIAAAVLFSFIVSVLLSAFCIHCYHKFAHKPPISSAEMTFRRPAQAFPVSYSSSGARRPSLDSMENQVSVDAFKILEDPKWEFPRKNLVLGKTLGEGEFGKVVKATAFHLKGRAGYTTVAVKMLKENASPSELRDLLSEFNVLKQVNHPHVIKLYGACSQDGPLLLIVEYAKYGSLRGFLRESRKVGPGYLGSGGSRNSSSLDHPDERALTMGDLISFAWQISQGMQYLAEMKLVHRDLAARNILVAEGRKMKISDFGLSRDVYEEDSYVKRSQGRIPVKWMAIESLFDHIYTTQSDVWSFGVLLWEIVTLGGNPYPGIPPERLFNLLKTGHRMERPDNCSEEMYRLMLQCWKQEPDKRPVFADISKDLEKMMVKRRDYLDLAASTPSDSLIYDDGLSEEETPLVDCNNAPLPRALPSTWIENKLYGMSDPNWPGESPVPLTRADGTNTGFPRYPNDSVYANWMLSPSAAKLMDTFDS
Sequence of Tyrosine-protein kinase FRK (Homo sapiens) (P42685 whole entry): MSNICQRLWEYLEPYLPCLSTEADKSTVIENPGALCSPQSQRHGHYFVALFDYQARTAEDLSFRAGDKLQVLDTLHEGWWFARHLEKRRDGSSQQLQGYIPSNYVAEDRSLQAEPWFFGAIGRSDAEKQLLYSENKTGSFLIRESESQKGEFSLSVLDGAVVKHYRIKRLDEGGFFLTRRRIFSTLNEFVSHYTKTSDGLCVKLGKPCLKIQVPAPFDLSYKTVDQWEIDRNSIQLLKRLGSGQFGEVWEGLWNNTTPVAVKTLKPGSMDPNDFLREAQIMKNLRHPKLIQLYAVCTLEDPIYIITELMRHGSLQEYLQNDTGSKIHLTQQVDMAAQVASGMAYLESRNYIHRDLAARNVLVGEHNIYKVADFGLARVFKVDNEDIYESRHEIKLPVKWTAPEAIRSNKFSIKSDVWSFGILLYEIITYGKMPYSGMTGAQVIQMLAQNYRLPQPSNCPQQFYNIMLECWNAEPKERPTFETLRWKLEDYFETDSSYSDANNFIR
Sequence of Tyrosine-protein kinase HCK (Homo sapiens) (P08631 2-526 limits assumed): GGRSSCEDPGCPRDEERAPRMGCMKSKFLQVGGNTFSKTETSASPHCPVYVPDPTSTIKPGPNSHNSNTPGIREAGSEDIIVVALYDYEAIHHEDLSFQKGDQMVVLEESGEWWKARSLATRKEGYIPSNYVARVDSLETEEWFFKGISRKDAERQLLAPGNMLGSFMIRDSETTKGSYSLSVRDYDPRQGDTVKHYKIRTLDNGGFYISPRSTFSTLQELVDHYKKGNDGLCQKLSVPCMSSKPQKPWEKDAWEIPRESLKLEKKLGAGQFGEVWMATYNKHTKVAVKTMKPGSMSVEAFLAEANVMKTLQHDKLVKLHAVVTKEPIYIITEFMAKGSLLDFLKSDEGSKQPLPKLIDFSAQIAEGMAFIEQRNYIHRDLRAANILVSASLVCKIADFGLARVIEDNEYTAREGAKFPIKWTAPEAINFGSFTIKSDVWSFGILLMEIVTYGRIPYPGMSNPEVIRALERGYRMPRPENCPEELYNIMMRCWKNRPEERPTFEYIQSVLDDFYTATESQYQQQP
Sequence of Mitogen-activated protein kinase kinase kinase 9 (Homo sapiens) (P80192 whole entry, looked up): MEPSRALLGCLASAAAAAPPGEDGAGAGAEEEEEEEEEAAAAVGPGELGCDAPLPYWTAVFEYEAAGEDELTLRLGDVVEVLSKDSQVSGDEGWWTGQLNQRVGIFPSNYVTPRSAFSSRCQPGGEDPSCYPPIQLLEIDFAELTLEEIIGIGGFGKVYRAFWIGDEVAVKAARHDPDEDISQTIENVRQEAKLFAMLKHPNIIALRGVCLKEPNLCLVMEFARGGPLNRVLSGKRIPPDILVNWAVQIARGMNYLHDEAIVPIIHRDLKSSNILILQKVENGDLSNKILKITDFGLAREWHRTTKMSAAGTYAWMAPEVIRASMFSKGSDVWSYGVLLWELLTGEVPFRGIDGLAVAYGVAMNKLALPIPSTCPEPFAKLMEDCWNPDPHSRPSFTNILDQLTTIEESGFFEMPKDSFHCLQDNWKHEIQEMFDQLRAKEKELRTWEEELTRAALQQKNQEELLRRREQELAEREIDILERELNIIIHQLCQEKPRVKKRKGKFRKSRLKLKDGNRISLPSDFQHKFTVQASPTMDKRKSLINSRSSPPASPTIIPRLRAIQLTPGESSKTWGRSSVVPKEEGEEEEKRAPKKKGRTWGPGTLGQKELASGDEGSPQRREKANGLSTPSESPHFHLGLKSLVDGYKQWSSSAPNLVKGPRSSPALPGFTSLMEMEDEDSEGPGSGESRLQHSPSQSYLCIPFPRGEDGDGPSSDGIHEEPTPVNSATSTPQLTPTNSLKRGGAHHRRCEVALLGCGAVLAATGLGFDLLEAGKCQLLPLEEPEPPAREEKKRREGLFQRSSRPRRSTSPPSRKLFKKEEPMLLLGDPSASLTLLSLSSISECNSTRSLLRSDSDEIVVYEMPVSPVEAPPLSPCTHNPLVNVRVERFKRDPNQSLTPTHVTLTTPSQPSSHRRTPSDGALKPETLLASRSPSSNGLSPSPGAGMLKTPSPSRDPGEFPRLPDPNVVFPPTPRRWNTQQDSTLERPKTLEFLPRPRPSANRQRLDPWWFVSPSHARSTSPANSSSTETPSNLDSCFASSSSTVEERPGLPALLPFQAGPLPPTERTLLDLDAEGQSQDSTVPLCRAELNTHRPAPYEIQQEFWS
Sequence of Tyrosine-protein kinase Lyn (Homo sapiens) (P07948 2-512 limits assumed): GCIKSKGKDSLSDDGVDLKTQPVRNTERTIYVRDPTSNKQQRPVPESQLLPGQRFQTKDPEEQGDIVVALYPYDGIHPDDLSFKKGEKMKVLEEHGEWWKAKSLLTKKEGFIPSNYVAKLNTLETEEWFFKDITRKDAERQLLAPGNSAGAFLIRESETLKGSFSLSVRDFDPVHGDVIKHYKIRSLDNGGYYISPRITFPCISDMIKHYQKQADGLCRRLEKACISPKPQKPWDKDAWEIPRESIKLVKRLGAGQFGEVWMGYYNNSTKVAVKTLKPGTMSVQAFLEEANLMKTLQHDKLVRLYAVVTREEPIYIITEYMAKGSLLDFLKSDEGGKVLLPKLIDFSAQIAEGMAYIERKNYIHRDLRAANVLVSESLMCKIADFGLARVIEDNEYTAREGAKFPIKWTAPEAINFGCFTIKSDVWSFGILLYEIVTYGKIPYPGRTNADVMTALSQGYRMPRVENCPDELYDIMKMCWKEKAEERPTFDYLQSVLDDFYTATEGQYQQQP
Sequence of Vascular endothelial growth factor receptor 1 (Homo sapiens) (P17948 whole entry): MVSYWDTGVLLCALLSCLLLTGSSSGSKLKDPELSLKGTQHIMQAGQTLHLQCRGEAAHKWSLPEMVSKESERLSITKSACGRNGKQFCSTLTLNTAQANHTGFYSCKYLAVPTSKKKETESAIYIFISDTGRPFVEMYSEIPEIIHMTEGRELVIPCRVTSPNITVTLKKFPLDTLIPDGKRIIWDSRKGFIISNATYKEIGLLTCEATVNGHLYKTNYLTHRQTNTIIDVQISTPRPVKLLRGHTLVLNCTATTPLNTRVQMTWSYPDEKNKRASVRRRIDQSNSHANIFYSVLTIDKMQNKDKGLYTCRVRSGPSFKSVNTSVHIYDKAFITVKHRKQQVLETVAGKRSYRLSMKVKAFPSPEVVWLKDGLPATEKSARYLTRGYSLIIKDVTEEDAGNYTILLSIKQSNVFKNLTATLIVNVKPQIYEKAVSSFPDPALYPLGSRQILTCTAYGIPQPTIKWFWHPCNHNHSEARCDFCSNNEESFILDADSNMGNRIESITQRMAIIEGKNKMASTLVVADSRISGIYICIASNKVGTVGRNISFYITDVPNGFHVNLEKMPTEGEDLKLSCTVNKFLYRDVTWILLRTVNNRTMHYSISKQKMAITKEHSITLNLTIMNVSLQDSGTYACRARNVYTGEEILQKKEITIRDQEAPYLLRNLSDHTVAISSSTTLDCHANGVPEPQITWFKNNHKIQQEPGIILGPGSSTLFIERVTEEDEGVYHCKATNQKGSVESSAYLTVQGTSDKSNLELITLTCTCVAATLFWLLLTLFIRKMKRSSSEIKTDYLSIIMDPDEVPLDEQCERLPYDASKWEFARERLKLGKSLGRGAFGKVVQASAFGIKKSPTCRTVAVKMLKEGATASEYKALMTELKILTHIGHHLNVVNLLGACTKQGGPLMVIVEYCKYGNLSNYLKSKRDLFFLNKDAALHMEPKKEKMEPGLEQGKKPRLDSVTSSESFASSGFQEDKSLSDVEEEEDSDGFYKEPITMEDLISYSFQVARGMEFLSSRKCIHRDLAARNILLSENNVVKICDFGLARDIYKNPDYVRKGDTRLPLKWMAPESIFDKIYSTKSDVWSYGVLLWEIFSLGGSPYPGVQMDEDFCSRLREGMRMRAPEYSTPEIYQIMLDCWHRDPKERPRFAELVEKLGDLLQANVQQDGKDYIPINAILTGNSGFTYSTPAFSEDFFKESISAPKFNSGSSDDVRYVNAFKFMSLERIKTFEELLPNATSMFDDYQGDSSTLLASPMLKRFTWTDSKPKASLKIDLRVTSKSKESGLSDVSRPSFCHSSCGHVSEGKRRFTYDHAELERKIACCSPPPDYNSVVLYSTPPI

For the compound `O=C(N[C@@H](C1CC1)C(F)(F)F)c1cc(-c2cnn3cc(-c4ccc(F)cc4)cnc23)cs1`, the fold change (FC) in experiment [1] was determined as 0; in experiment [3] it was 0.04. The figures for the inhibition in experiment [2] and in experiment [4] were 0% and 18%, respectively.

In the case of `CNC(=O)c1ccccc1Oc1nc(Nc2cc(OC)c(OC)c(OC)c2)ncc1Br`, the inhibition amounted to 9% in [5], 1% in [6], 3% in experiment [8] and 17% in experiment [10]. The fold change (FC) in experiment [7] was 0.03; in experiment [9] it was 0.47; in the experiment filed under Homo sapiens, 0.

As for `CC(C)[C@H](NC(=O)c1cc(-c2cnn3cc(-c4ccc(OCCN5CCCCC5)cc4)cnc23)cs1)C(F)(F)F`, the fold change (FC) in experiment [11] was 0. Besides, the inhibition amounted to 68% in experiment [12] and 0% in [13].
